These antisense oligonucleotides have a phosphorothioate backbone; sugars and methylation of C are not fully specified.
target: EGR1; conditions: ASO
Further: test concentration or dose not given here.

Sequence | remaining target (mRNA or protein) (fraction of control)
AACGGAACAACACTCTGA | ≥ 1
ACTCGATTTTCTAGCATT | ≥ 1
AGAGGATCACCATTGGTT | ≥ 1
AGATGGTGCTGAGGACGA | ≥ 1
ATGCCTCTTGCGTTCATC | ≥ 1
ATGTCCGAAAGCCCTGTG | ≥ 1
CAAAAGGCACCAAGACGT | ≥ 1
CAGCAGCATCATCTCCTC | ≥ 1
CATGGCACAGACACTGTA | ≥ 1
CCACTGGGCAAGCGTAAG | ≥ 1
CCCCGCCGCCTCCACCGC | 0.38
CCTGCGGCGGCGGAAGCT | ≥ 1
CGCAGGCGAAGGGCTTTT | ≥ 1
CGGCAGGGTAGGCAGGAG | 0.56
CTCACTAGGCCACTGACC | ≥ 1
CTCGCCCGTGTCCGCCTG | ≥ 1
GAAAATGTCAGTGTTCGG | ≥ 1
GAGAGGAGAAGGAGGTGG | ≥ 1
GATGGCGGCGGCGGCTCC | ≥ 1
GATGTCAGGAAAAGACTC | ≥ 1

Sequence | remaining target (mRNA or protein) (fraction of control)
GGAAGGGCTTCTGGTCTG | ≥ 1
GGAATTGGCTCTGAGAAC | ≥ 1
GGGCCTGGCCGGGTTACA | 0.4
GGGCGAGTGAGGAAAGGA | 0.63
GGTAGGAAGAGAGAGAGG | ≥ 1
GGTCCTGGGAGCCCGACT | ≥ 1
GGTGAAGAACTTGGACAT | ≥ 1
GTGGGCAGAAAGGATTGT | 0.8
GTTTGATGAGCTGGGACT | ≥ 1
TAATACAATAGAATATGC | ≥ 1
TATCCAAAATCCATGCAA | ≥ 1
TCGAGTGGTTTGGCTGGG | ≥ 1
TCGCTGCGGCTGAAGTTG | ≥ 1
TCTCCTCCTCCTGTCCTT | ≥ 1
TCTGCTTTCTTGTCCTTC | ≥ 1
TCTTTCCCCTTTCCCTTT | 0.93
TGCGGATGTGGCGGGTGA | ≥ 1
TGCTGACCTGGGCCGGGA | ≥ 1
TGCTGTCGTTGGATGGCA | ≥ 1
TGGGTGCAGGCTCCAGGG | ≥ 1

target: IL15; conditions: ASO

Sequence | remaining target (mRNA or protein) (fraction of control)
TTAGCTGCATCCCAAAAT | 0.48
TTAGTAGCATTTAGGTAA | ≥ 1
TTCAATAATAAATTAAAA | ≥ 1
TTCTCATTACTCAAAGCC | 0.87
TTGTTATGTCTAAGCAGC | 0.47
TTTAATCTTTACAATAAT | ≥ 1
TTTAGAAGTAAACACAAG | ≥ 1

target: PLA2G4A; conditions: ASO

Sequence | remaining target (mRNA or protein) (fraction of control)
AAACGCCCAAAACTCTGT | ≥ 1
AAAGAGGTAAAGGGCATT | ≥ 1
AAATAAGTCGGGAGCCAT | ≥ 1
AAATCGTAGGTCTGGGCA | ≥ 1
AAGGGATACGGCAGGTTA | ≥ 1
AAGTCGGGAGCCATAAAA | 0.87
ACCAGAAACGCCCAAAAC | 0.21
AGAGGTAAAGGGCATTGT | ≥ 1
AGCACTCCTTCAGCCCTT | 0.29
AGCCCACTGTCCACTACA | 0.2
AGGCCATTATCATACGAT | ≥ 1
AGTGGATGATGGTTGGGC | ≥ 1
ATAAGTCGGGAGCCATAA | 0.98

target: REL; conditions: ASO

Sequence | remaining target (mRNA or protein) (fraction of control)
AAACAGTAGTATTGGAAT | ≥ 1
AATCCACTTGAGATGGGC | 0.74
AATGGATTGATTCCTGCC | ≥ 1
ACACGACAAATCCTTAAT | ≥ 1
ACTAATGTAATTCTCACT | ≥ 1
ACTGACTATCTTGAACAA | ≥ 1
AGTCAGGAGGCCGAGGGA | ≥ 1
ATACGCACCGGAGGCCAT | ≥ 1
ATGCCTTTTGCTTCCCAA | 0.14
ATGCTGCCTGCTGATCGC | 0.41
ATTCTCAGTCAGTATTAT | 0.75
ATTTGTATCTAAAACGCA | ≥ 1
CAAAATGCTGCATCTATA | 0.79
CACAATTCTTGTTTACAC | 0.84
CACAGTCTCACCACATTG | 0.39
CACTAACTTCCTGGTCAG | 0.48
CCATATAAATCTGCTGAT | ≥ 1
CGAGACAACAGGAGGAAG | 0.8
CGGTTGTTGTCTGTGCTG | 0.38
CTCCTCCTTCTTCCCGCC | 0.78

Sequence | remaining target (mRNA or protein) (fraction of control)
CTTCCCGCAGGCAGCTCC | 0.56
CTTTTCCATAATAGTTCA | 0.85
GAAGTCTTGGATTATCAG | ≥ 1
GAATGGTGGGATACCTTG | 0.43
GAGGTTTATATGGGTCAT | ≥ 1
GTATTGCCTGAGCGTGGG | 0.57
GTCTCAAGTCTCTTGGGT | 0.41
GTCTGCGTTCTTGTCCAA | ≥ 1
TCATATTCACAGAACAAT | ≥ 1
TCATCGGCATTGTTGTAA | 0.54
TCATTTATCATGCTGTTA | ≥ 1
TCCCAAAGTGCTAGGATT | 0.7
TCTCTCACAACTGCATCA | 0.58
TCTTTCTGAACTTTGTCA | 0.98
TGATCCACCCGCCTTGGC | ≥ 1
TGTAATCCCAGCACTTTG | 0.73
TTACTGTTACGGGTTCTG | 0.64
TTGTATTCGCTATGTCCA | 0.53
TTTCTACGTGATCCTGGC | 0.85
TTTGCTTTATTGCCGTAA | ≥ 1

target: SUMO1; conditions: ASO

Sequence | remaining target (mRNA or protein) (fraction of control)
AAACAATAATGAATAATG | ≥ 1
AAATCCTTCCCCTTCCCG | ≥ 1
AACTTCCGCTACGCCTCG | ≥ 1
AATTTCCAGTATTTATGC | 0.45
ACAATGAAAACAAACAAT | ≥ 1
ACATGATGACGGTGGCTT | ≥ 1
ACCACATTACAAAAGAAC | ≥ 1
ACTGCTATCCTGTCCAAT | 0.67
ACTTCCATCTCCCACTGA | 0.47
AGATGTGTTGTCATTTTC | ≥ 1
AGCAGTGTTCTGTTGTAT | ≥ 1
AGGATTGAGGGAAAAGAA | ≥ 1
ATAATGAATAATGAGCAC | ≥ 1
ATGATTCTTTGAGTTTCT | 0.59
ATTCACCTTCCTTCTTAT | 0.55
ATTCTCTGACCCTCAAAG | ≥ 1
CAGATGTTTCAAAGAGAT | ≥ 1
CAGTATGATTCTTTGAGT | 0.53
CCACAGTTCAGTTCTCTG | 0.34
CCAGGAGTGAAGTAATCA | ≥ 1

Sequence | remaining target (mRNA or protein) (fraction of control)
CCCCTTCCCGACAGCACA | 0.92
CCTCAAAGAGAAACCTGA | ≥ 1
CTCAGTTGAAGGTTTTGC | ≥ 1
CTGTCCAATGACTTTGAG | ≥ 1
CTTTGGAGTTAGTCATTA | ≥ 1
GATAAACTTCAATCACAT | ≥ 1
GCAGTAACTTCCGCTACG | ≥ 1
GGCACTTCAGTAACTTTC | 0.79
GGGTCTCCGCACAGCAGC | ≥ 1
GGGTTTACAAATCCTTCC | ≥ 1
GTCTTTGACAGTATGATT | ≥ 1
GTTTCTTGAGATGTGTTG | 0.86
TCACCTTATCTGTCATCT | ≥ 1
TCCATCTCCCACTGAAAG | 0.53
TCCGTTTTGAACACCACA | 0.29
TGAATCTCACTGCTATCC | ≥ 1
TTCATTGGAACACCCTGT | 0.32
TTCCTCCATTCCCAGTTC | ≥ 1
TTCTTTGAGTTTCTTGAG | ≥ 1
TTCTTTTGGAGTATGATT | ≥ 1
